Experiments:
experimental animals = details: high thallium acetate doses needed for the method; animals sacrificed 15 minutes after administration; cited from earlier work
brain = details: cited from earlier work
[1] = test system: brain of rat after focal cerebral ischemia
Description: Thallium is a potassium tracer and can detect changes in potassium metabolism, as occur, e.g., in brain infarcts, brain tumors, or degenerative diseases.
Shown are frontal sections in the plane of the anterior commissure (A, D) and images of the same sections (B, E).
The thallium is taken up essentially by the sodium-potassium pump and transport systems regulated by it and is thus energy-dependent. […] Scale bar in A: 500 μm, in B: 50 μm, in C: 25 μm, in D: 10 μm, in E: 25 μm and in F: 100 μm.

Molecule	toxicity of the thallium dose used (experimental animals)	cerebral uptake (brain)	decomposition in the brain (brain)	staining intensity (thallium) in infarct core ([1]; 15 minutes after focal cerebral ischemia (hyperacute stage), infarct core)	staining intensity (thallium) in zone surrounding infarct core ([1]; 15 minutes after focal cerebral ischemia, zone surrounding core vs contralateral side)	differences in thallium distribution ipsilateral and contralateral to the occluded vessel ([1]; 7 days after focal cerebral ischemia (late time point))	thallium staining of astrocytes in the infarct core ([1]; hyperacute stage of cerebral ischemia, astrocytes)	thallium detection in neurons of the infarct core ([1]; hyperacute stage of cerebral ischemia, neurons)	retention in the brain (brain)
CC(=O)[O-].[Tl+] [thallium acetate]	deadly								
CCN(CC)C(=S)[S][201Tl] [Tl-DDC, thallium-201 diethyldithiocarbamate]		good cerebral uptake	decomposes spontaneously in the brain	clearly reduced staining intensity	clearly lower than in the undamaged contralateral side	less pronounced	intensively stained	cannot be detected	
technetium-99m-diethyldithiocarbamate [^99 mTc-DDC]		good cerebral uptake	essentially lower rate of decomposition in the brain						retained there to a lesser extent

From patent US8911705B2, “Diagnostic substance and method for the analysis of metabolism processes in the brain” (Leibniz-Institut fuer Neurobiologie Stiftung des …, priority 2005, dated 2014)
